Source: patent US20260083126A1, “ANTIMICROBIAL COMPOSITIONS” (AHV International B.V., priority 2022, published 2026)
Entries after “also recorded” stand apart in the source; their conditions may differ.

How the values were obtained:
[1] = solubility observed when preparing stock solutions; type: physicochemical; conditions: in water / medium; stock of 2 mM feasible with Tween80 and DMSO
Experimental: (§1) Hereafter, the stock solutions of the compounds were used in three repetitions in a minimal inhibitory concentration (MIC) assay at a 2-fold dilution range with various bacteria from the gram-positive and gram-negative group and a yeast, Candida albicans. The concentrations that show only less than 10% growth after 24 h were considered the MIC90-values, whereas the concentrations that show 50% growth after 24 h when compared to the bacterial growth control were considered the MIC50-values. Escherichia coli and Staphylococcus aureus were used as representatives for a gram-negative bacteria and gram-positive bacteria, respectively. Furthermore, the yeast C. albicans was also tested.
Conclusion and discussion. […] With the addition of solvents like Tween80 and DMSO a stock solution in medium of 2 mM was feasible. This allowed a maximum of testing concentration of 1 mM. […] Therefore, with the application of solvents a maximum testing concentration of 0.575 mM was possible. If the real growth-inhibiting concentration (MIC90) lies above these maximum assay concentrations, then it would not be detected in this assay.

[2] = system: AMR Staphylococcus aureus LUH14616 persisters; test: Anti-persister experiment, antibiotics-exposed mature biofilm; type: cell-based; conditions: after 3 days rifampicin and ciprofloxacin, 24 hrs exposure, FIG. 25
Experimental: Experimental design. The capacity of AM-2 (Bis(4-chlorophenyl) disulfide) and AM-8 to reduce bacterial counts in mature biofilms was assessed as described earlier (Scheper et al (2021) Scheper H, Wubbolts J M, Verhagen J A M, de Visser A W, van der Wal RJJP, Visser L G, de Boer M J G, and Nibbering P H. SAAP-148 eradicates MRSA persisters within mature biofilm models simulating prosthetic joint infection. Front. Microbiol. 12:625952. Doi: 10.3389/fmicb.2021.625952. eCollection 2021) with one modification, i.e., the biofilms were exposed daily to the compounds for up to 4 consecutive days. Briefly, antimicrobial resistant (AMR) Staphylococcus aureus LUH14616 were cultured to mid-log phase in tryptic soy broth (TSB; Oxoid Ltd, Basingstoke, UK) at 37° C. and 200 rpm, centrifuged for 10 min at 3,000 rpm and then resuspended in brain heart infusion broth (BHI; Oxoid Ltd, Basingstoke, UK). Next, approximately 1×10^7 CFU bacteria in BHI were cultured in a 96-well flat-bottom polystyrene microplate sealed with breathable seal for 7 days. […] To take possible slow-growing bacteria into account we analyzed the bacterial plates again after a week. Results are expressed as the number of surviving bacteria (CFU/ml).

[3] = system: Staphylococcus aureus LUH 14616; test: MBC assay (Minimal Bactericide Concentration); type: cell-based; conditions: for MBC Staphylococcus aureus: LUH 14616, n = 3, no colonies on agar plate after 20 h; for effect at concentrations of growth inhibition (MIC90), S. aureus: higher MBC values compared to MIC90 values
Experimental: as §1
The Minimal Bactericide Concentration (MBC) of two compounds were determined, namely diisopropyl thiosulfonate and di-n-propyl thiosulfonate. […] This assay was performed per strain of E. coli, S. aureus, and C. albicans three independent times. Therefore, the standard deviation could also be calculated (Table 10).

[4] = system: Staphylococcus aureus LUH14616 mature biofilms; test: Biofilm eradication assay, 7-day mature biofilms; type: cell-based; conditions: 7-day mature biofilm
Experimental: Biofilm eradication assay. The assay to reduce bacterial counts in mature biofilms was assessed as described earlier (Scheper H J, Wubbolts J M, Verhagen J A M, de Visser A W, van der Wal R J P, Visser L G, de Boer M J J G, and Nibbering P H. SAAP-148 eradicates MRSA persisters within mature biofilm models simulating prosthetic joint infection. Front. Microbiol. 12:625952. Doi: 10.3389/fmicb.2021.625952. eCollection 2021) with a single modification, i.e., the biofilms were exposed daily to AM-8 for up to 4 consecutive days. Briefly, approximately 1×10^7 CFU logarithmic phase bacteria in BHI were cultured in a 96-well flat-bottom polystyrene microplate sealed with breathable seal for 7 days. Next, mature biofilms were washed twice with PBS, then exposed for 24 hrs to AM-8 or as control the diluent of this compound. Hereafter the biofilms were washed and either re-exposed to AM-8/its diluent for another day or—in case of termination of the daily exposures-sonicated for microbiological quantification of the number of viable bacteria. Results are expressed as the number of surviving bacteria at the various days of exposure. Experiment was performed in triplicate.

[5] = system: Staphylococcus aureus LUH14616; test: Resistance development on repeated exposure (19 passages); type: cell-based
Experimental: Experimental design. Potential resistance to AM-8 was assessed as described by Habets and Brockhurst (2012) (Therapeutic antimicrobial peptides may compromise natural immunity. Biol Lett 8:416-418). Briefly, log phase bacteria (S. aureus LUH 14616) were diluted in RPMI-mod to a concentration of 2×10^6 CFU/ml. Next, 50 μl of this bacterial suspension were mixed with 50 μl of a range of dilutions of AM-8 or—as comparator-rifampicin in v-bottom 96-wells plates. Thereafter, the plates were covered with a plastic seal and incubated for 24 hrs at 37° C. in a shaking incubator (200 rpm). The plates were then centrifuged for 5 min at 2,000 rpm and the growth inhibition was determined. To start the resistance development testing, 100 μl of a mid-log bacterial suspension containing 2×10^6 CFU/ml were mixed with 150 μl of RPMI-mod and 5 μl of this diluted bacterial suspension were applied to v-bottom wells containing a dilution range of AM-8 or antibiotics (various concentrations below and above MIC) in RPMI-mod (RPMI 1640 modified with 20 mM Hepes and L-glutamine and without sodium bicarbonate (Sigma-Aldrich); further referred to as RPMI-mod). After 24 hrs at 37° C. in a shaking incubator (200 rpm) the growth inhibition was determined. 100 μl of the bacterial suspension from the 0.5×MIC wells were mixed with 150 μl of RPMI-mod and 5 μl of the diluted bacterial suspension were used to inoculate a new 96-wells plate containing a dilution series of AM-8 or rifampicin, and these mixtures were then incubated as described above. If resistance developed, the concentration range of AM-8 and/or antibiotic was adjusted accordingly. This was repeated 19 times. Results are expressed as the fold-increase in MIC compared to the MIC at the start of the experiment.

Row | SMILES | solubility (observed) [1] | effect on persisters within antibiotics-exposed mature biofilm [2] | MBC Staphylococcus aureus [3] [µM] | effect at concentrations of growth inhibition (MIC90), S. aureus [3] | MBC Staphylococcus aureus ([3]; listed as diisopropyl thiosulfonate Batch A) [µM] | MBC Staphylococcus aureus ([3]; listed as diisopropyl thiosulfonate Batch C) [µM] | bacterial counts in mature biofilms, multiple daily exposures ([4]; daily exposure up to 4 days, FIG. 24, listed as AM-8) | biofilm reducing effect of a single dose ([4]; dose range study, results not shown) | resistance development ([5]; 19 passages, listed as AM-8) | fold-increase in MIC compared to the MIC at the start ([5]; within 19 passages, two batches, seen occasionally) [fold]
1 | Clc1ccc(SSc2ccc(Cl)cc2)cc1 [Bis (4-chlorophenyl) disulfide, Bis(4-chlorophenyl) disulfide] | low solubility | at the highest dose was effectively against persisters | – | – | – | – | – | – | – | –
2 | CCCSS(=O)(=O)CCC [Di-n-propyl thiosulfonate, reference compound] | – | – | 1083 | bacteriostatic effect | – | – | – | – | – | –
3 | CC(C)SS(=O)(=O)C(C)C [Di-isopropyl thiosulfonate] | – | – | – | bacteriostatic effect | 1500 | 1833 | dose-dependently significantly reduced the bacterial counts in mature biofilms; also recorded: able to eliminate all bacteria within biofilms | increased in time without fully eradicating the bacteria within the biofilm | no resistance development; also recorded: little/no resistance | ≤ 2
